Values joined by “and” are separate entries in the source; they are usually repeats but may differ in a detail not shown here. Equal entries are not always repeated.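 48-hour exposure; five concentrations; linearly interpolated endpoints. GI50 is the concentration that inhibits growth by half. At the TGI there is no net growth.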
Experiments:
Assay in all cases: DTP human tumour cell line panel, 48 h
BT-549 breast = tested on: BT-549 breast
HCC-2998 colon = tested on: HCC-2998 colon
HOP-92 NSCLC = tested on: HOP-92 NSCLC
MDA-MB-435 = tested on: MDA-MB-435
RXF 393 renal = tested on: RXF 393 renal
SK-MEL-28 melanoma = tested on: SK-MEL-28 melanoma
SK-OV-3 ovarian = tested on: SK-OV-3 ovarian
SNB-19 CNS = tested on: SNB-19 CNS
SR leukemia = tested on: SR leukemia
SW-620 colon = tested on: SW-620 colon

Row | Structure (SMILES) | GI50 (BT-549 breast) | TGI (BT-549 breast) | GI50 (HCC-2998 colon) | TGI (HCC-2998 colon) | GI50 (HOP-92 NSCLC) | TGI (HOP-92 NSCLC) | GI50 (MDA-MB-435) | TGI (MDA-MB-435) | GI50 (RXF 393 renal) | TGI (RXF 393 renal) | GI50 (SK-MEL-28 melanoma) | TGI (SK-MEL-28 melanoma) | GI50 (SK-OV-3 ovarian) | TGI (SK-OV-3 ovarian) | GI50 (SNB-19 CNS) | TGI (SNB-19 CNS) | GI50 (SR leukemia) | TGI (SR leukemia) | GI50 (SW-620 colon) | TGI (SW-620 colon)
1 | COC(=O)[C@@H](C)C[C@H](Cc1ccccc1)NC(=O)c1nc([C@@H](C[C@H](C(C)C)N(C)C(=O)[C@@H](NC(=O)[C@H]2C[C@H](O)CCN2C)C(C)C)OC(C)=O)sc1C(C)C | 0.00416 µM | 0.131 µM | 0.00353 µM | 4.52 µM | 0.00491 µM | 7.05 µM | < 0.00111 µM | 0.00288 µM | 0.025 µM | > 11.1 µM | 0.0191 µM | > 11.1 µM | 0.00646 µM | > 11.1 µM | 0.00424 µM | > 11.1 µM | 0.00126 µM | > 11.1 µM | 0.00533 µM | > 11.1 µM
2 | C/C(=C\C(=O)O[C@H]1[C@@H]2[C@H](C)CC[C@H]2[C@]2(C)O[C@@]1(C1CCCCC1)C[C@H]2OC(=O)CO)c1ccccc1 | 0.12 µM | 4.21 µM | 7.32 µM | 14.4 µM | 2.07 µM | 8.09 µM | 6.84 µM | 12.9 µM | 0.0798 µM | 7.12 µM | 6.78 µM | 12.6 µM | 7.15 µM | 13.2 µM | 7.41 µM | 13.1 µM | 6.87 µM | 15 µM | 6.78 µM | 13.3 µM
3 | O=C1C=C(Nc2ccccc2)c2ccccc2C1=O | 1.73 µM | 3.16 µM | 2.02 µM | 4.62 µM | 2.73 µM | 13.2 µM | 1.93 µM | 3.7 µM | 2.53 µM | 8.77 µM | 2.13 µM | 4.46 µM | 2.95 µM | 8.99 µM | 2.2 µM | 6.73 µM | 3.22 µM | 12.4 µM | 2.1 µM | 5.33 µM
4 | Nc1c(C(=O)Nc2cccc(Cl)c2)sc2nc3c(cc12)C(=O)CCC3 | 0.948 µM | > 100 µM | 0.849 µM | > 100 µM |  | > 100 µM | 0.0563 µM | 0.284 µM | 0.479 µM | > 42.2 µM | 0.567 µM | > 100 µM | 0.313 µM | > 70.5 µM | 0.529 µM | > 100 µM | 0.383 µM | > 100 µM | 0.351 µM | > 100 µM
5 | C[N+]1([O-])C2CCC1CC(OC(=O)C(CO)c1ccccc1)C2 (configuration not stated) |  | > 100 µM |  | > 100 µM |  | > 100 µM |  | > 100 µM |  | > 100 µM |  | > 100 µM |  | > 100 µM |  | > 100 µM |  | > 100 µM |  | > 100 µM
6 | Cc1cc(I)cc(CNCCN(C)C)c1O | 37.5 µM | > 100 µM | 35.1 µM | > 100 µM | 37.2 µM | > 100 µM | 37.1 µM | > 100 µM | 30.6 µM | > 100 µM | 28.5 µM | > 80.4 µM | > 100 µM | > 100 µM | > 100 µM | > 100 µM |  | 0.383 µM | > 100 µM | > 100 µM
7 | CN1C(=O)C(c2c[nH]c3ccccc23)=C(c2c[nH]c3ccccc23)C1=O | 8.14 µM | 24.7 µM | 5.46 µM | 13.1 µM | 3.08 µM | 13.3 µM | 5.49 µM | 16.2 µM | 4.41 µM | 12.8 µM | 7.84 µM | > 25 µM | 12 µM | > 25 µM | 9.77 µM | > 25 µM | 7.14 µM | > 25 µM | 5.78 µM | > 25 µM
8 | N#CC1=C(N)Oc2c(sc3c(Br)cccc23)C1c1ccc([N+](=O)[O-])cc1 (configuration not stated) | 0.319 µM | 5.31 µM | 0.284 µM | 6.94 µM | 0.0441 µM | 8.82 µM | 0.0206 µM | 0.0807 µM | 0.036 µM | 2.23 µM | 2.66 µM | 21 µM | 0.128 µM | 15.1 µM | 0.139 µM | 13 µM | 0.048 µM | 6.45 µM | 0.0708 µM | 14.5 µM
9 | Cn1cc(-c2ccc3nc(-c4ccc(CC(=O)Nc5cc(C(C)(C)C)no5)cc4)cnc3c2)cn1 | 0.206 µM | > 3 µM | > 1.69 µM | > 3 µM | 0.0495 µM | > 3 µM | 0.0505 µM | > 3 µM | 0.0195 µM | > 3 µM | 0.104 µM | > 3 µM | 0.0938 µM | 0.712 µM | > 1.48 µM | > 3 µM | < 0.0445 µM | > 3 µM | 0.0477 µM | > 3 µM
10 | C[C@@H]1CN2[C@H]3[C@@H]1CC[C@]31CCC(=O)O[C@]1(C)[C@H]1CC[C@H]3CCC=C3[C@@H]12 | > 30 µM | > 30 µM | > 30 µM | > 30 µM | > 30 µM | > 30 µM | > 30 µM | > 30 µM | > 30 µM | > 30 µM | > 30 µM | > 30 µM | > 30 µM | > 30 µM | > 30 µM | > 30 µM | > 30 µM | > 30 µM | > 30 µM | > 30 µM
11 | CC1=C(CCCOC(=O)[C@H](N)CC(C)C)C2=C(C)C3(CC3)[C@@](C)(O)C(=O)C2=C1 | 1.31 µM | 4.48 µM | 1.78 µM | 4.49 µM | 0.759 µM | 3.33 µM | 3.28 µM | 27.6 µM | 0.492 µM | 1.29 µM | 2.11 µM | 5.51 µM | 0.752 µM | 3.03 µM | 2.88 µM | > 100 µM | 12.8 µM | > 100 µM | 19.6 µM | > 84 µM
12 | COc1cc2c(c3oc(-c4ccc(O)cc4)c(O)c(=O)c13)CCC(C)(C)O2 | 0.279 µM | 0.836 µM | 0.254 µM | 0.672 µM | 0.217 µM | 0.902 µM | 0.0427 µM | 0.204 µM | 0.0379 µM | 0.176 µM | 0.21 µM | 0.93 µM | 0.401 µM | 5.4 µM | 0.16 µM | > 23.4 µM | 0.0773 µM |  | 0.0872 µM | 0.31 µM
13 | CS(=O)(=O)OCCN(CCOS(C)(=O)=O)c1ccc(C=Nc2ccc(-c3csc(COc4ccccc4)n3)cc2)cc1 |  | 37 µM |  | 7.59 µM |  | 35 µM |  | 31.6 µM |  | 1.85 µM |  | 25.5 µM |  | 12.2 µM |  | 32.6 µM |  | 15.5 µM |  | 52 µM
14 | O=S(=O)(NCCCNc1cc(-c2cn(-c3ccccc3)nc2-c2cccc(O)c2)ccn1)c1ccc(C(F)(F)F)cc1 | 1.39 µM | 2.8 µM | 1.92 µM | 3.53 µM | 1.56 µM | 3.9 µM | 1.74 µM | 3.46 µM | 1.24 µM | 2.84 µM | 1.99 µM | 4.29 µM | 2.39 µM | 5.95 µM | 2.04 µM | 5.55 µM | 1.78 µM | 5.83 µM | 1.78 µM | 3.93 µM
15 | Cc1ccc(NC(=O)c2ccc(CN3CCN(C)CC3)cc2)cc1Nc1nc(-c2cccnc2)cs1 | 8.5 µM and 3.79 µM | 22.1 µM and > 10 µM | 11.8 µM and > 10 µM | 26 µM and > 10 µM | 11 µM and > 10 µM | 24.2 µM and > 10 µM | 8.24 µM and 5.64 µM | 21.6 µM and > 10 µM | 2.98 µM and 1.9 µM | 8.41 µM and 4 µM | 12 µM and 2.66 µM | 24.5 µM and 8.57 µM | 19.1 µM and > 10 µM | 40 µM and > 10 µM | 14.4 µM and 6.37 µM | 29.7 µM and > 10 µM | 2.72 µM and 1.91 µM | 18.6 µM and 4.67 µM | 5.68 µM and 4.58 µM | 19.5 µM and > 10 µM
16 | Sc1cccc2cccnc12 | 1.46 µM | 12.4 µM | 3.49 µM | 16.2 µM | 7.11 µM | 20.5 µM | 2.66 µM | 20.5 µM | 1.4 µM | 8.28 µM | 1.15 µM | 16.2 µM | 3.04 µM | 13.8 µM | 1.82 µM | 17.3 µM | 0.28 µM | > 56.1 µM | 1.07 µM | 16.2 µM

— PubChem BioAssay (NCI)
